Here are results for 24 compounds from patent US9464064B2, “HCV helicase inhibitors and methods of use thereof” (University of Kansas, priority 2011, dated 2016).

Structures are written as SMILES.

T1 sequence (Q9WMX2 1192-1657): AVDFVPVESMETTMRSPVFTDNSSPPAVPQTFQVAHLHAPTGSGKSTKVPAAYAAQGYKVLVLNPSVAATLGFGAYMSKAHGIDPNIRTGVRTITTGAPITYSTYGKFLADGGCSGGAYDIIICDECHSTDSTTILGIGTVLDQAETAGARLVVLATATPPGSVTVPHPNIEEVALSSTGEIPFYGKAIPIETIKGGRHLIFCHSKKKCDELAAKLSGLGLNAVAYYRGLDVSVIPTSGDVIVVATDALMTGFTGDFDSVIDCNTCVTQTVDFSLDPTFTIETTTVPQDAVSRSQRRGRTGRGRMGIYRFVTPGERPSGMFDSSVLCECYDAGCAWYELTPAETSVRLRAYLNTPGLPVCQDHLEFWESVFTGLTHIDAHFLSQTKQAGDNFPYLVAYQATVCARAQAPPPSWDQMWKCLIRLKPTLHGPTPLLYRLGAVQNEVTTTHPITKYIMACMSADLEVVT

The first assay has as its target T1, HCV NS3 helicase NS3h_1b(con1) (Hepatitis C virus genotype 1b, UniProt Q9WMX2).
T1 construct: truncated C-terminally His-tagged NS3 proteins lacking the N-terminal protease, called NS3h; His-tag (C); made in house
Description: MBHA screen of NCI mechanistic set library at 20 μM (percent inhibition, compound interference). Type of assay: biochemical. The conditions noted are these: compounds at 20 μM, MBHA with DNA substrate; assay interference calculated with Equation 2. In short, it runs like this:
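Molecular beacon-based DNA unwinding assay; compounds screened at 20 μM in triplicate, with DMSO-only negative and 500 nM dT20 positive controls. Fluorescence (ex 643/em 670 nm) was read before and 30 min after adding ATP to 1 mM. Percent inhibition came from the change relative to DMSO controls; interference from pre-ATP fluorescence versus DMSO controls.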
On to `COC1OC(COCc2ccc(Cl)cc2)C(OCc2ccc(Cl)cc2)C1O` (stereo not drawn) [Compound 626120], for which the “Int.* (Ratio) (Interference)” value is 0.97 Ratio.

As to `O=Cc1cc([N+](=O)[O-])no1` [Compound 626433], the “Int.* (Ratio) (Interference)” value was 0.98 Ratio.

As for `COc1ccc(C2C(C)C(=O)C(C)C(c3ccc(OC)cc3)N2N=O)cc1` (stereo not drawn) [Compound 626734], the “Int.* (Ratio) (Interference)” value is listed as 1.02 Ratio.

Take `COc1ccc2c(c1)-c1nn(CCCN(C)C)c3ccc([N+](=O)[O-])c(c13)N2` [Compound 627168]: the “Int.* (Ratio) (Interference)” value was 0.53 Ratio.

For the compound `O=[N+]([O-])c1cc(C(F)(F)F)cc2n[se]nc12` [Compound 627371], the “Int.* (Ratio) (Interference)” value was 0.92 Ratio.

In the case of `Cc1ccc(S(=O)(=O)c2ccccc2[N+](=O)[O-])cc1` [Compound 627708], the “Int.* (Ratio) (Interference)” value is listed as 1.03 Ratio.

As to `N#CC1(C#N)C2C=CC(c3coc4cccc2c34)C1(C#N)C#N` (stereo not drawn) [Compound 629301], the “Int.* (Ratio) (Interference)” value is on record as 0.91 Ratio.

In the case of `O=C(NCCCCCCCCNC(=O)c1cccc2ccccc12)c1cccc2ccccc12` [Compound 629738], the “Int.* (Ratio) (Interference)” value is 0.97 Ratio.

On to `O=C(CCc1ccccc1)On1nnc2ccccc2c1=O` [Compound 630374], for which the “Int.* (Ratio) (Interference)” value is 0.89 Ratio.

`Cn1cnc([N+](=O)[O-])c1Sc1nnnn1-c1ccccc1` [Compound 631152]: the “Int.* (Ratio) (Interference)” value is 0.94 Ratio.

With `N#CC1=C(N)Oc2c(ccc3cccnc23)C1c1ccccc1` (stereo not drawn) [Compound 631583], the “Int.* (Ratio) (Interference)” value is given as 0.98 Ratio.

As to `COc1ccc(Cc2nc3ccccc3s2)cc1OC` [Compound 632233], the “Int.* (Ratio) (Interference)” value is reported as 1.04 Ratio.

For the compound `CC1(C)CC(Nc2ccc(Nc3ccccc3)cc2)CC(C)(C)N1` [Compound 632536], the “Int.* (Ratio) (Interference)” value is given as 0.84 Ratio.

For `Cc1ccc(/C=C2\CNC/C(=C\c3ccc(C)cc3)C2=O)cc1.Cl` [Compound 632839], the “Int.* (Ratio) (Interference)” value was 0.87 Ratio.

For `C=CC(=O)N1C/C(=C\c2ccccc2)C(=O)/C(=C/c2ccccc2)C1` [Compound 632841], the “Int.* (Ratio) (Interference)” value was 0.81 Ratio.

Take `O=[N+]([O-])c1ccccc1S(=O)(=O)c1ccccc1[N+](=O)[O-]` [Compound 633001]: the “Int.* (Ratio) (Interference)” value is 0.89 Ratio.

Regarding `O=C1C(c2cnc3ccccc3n2)=C(O)c2ccccc21` [Compound 634224], the “Int.* (Ratio) (Interference)” value was 1.17 Ratio.

With `Cc1c(Cl)cccc1NC(=O)CC1Sc2ccccc2NC1=O` (stereo not drawn) [Compound 634396], the “Int.* (Ratio) (Interference)” value was 0.99 Ratio.

Turning to `CCOC(=O)CCn1ncc(Cl)c(Cl)c1=O` [Compound 634471], the “Int.* (Ratio) (Interference)” value is recorded as 1.06 Ratio.

With `COC(=O)C1=CC(=O)C(C(=O)Nc2ccc(OC)cc2)C(c2ccccc2)O1` (stereo not drawn) [Compound 634473], the “Int.* (Ratio) (Interference)” value is recorded as 1.01 Ratio.

Regarding `Cn1c(=O)c2nc3sc4c(n3c2n(C)c1=O)C(=O)c1ccccc1C4=O` [Compound 634568], the “Int.* (Ratio) (Interference)” value is given as 0.90 Ratio.

Turning to `CC(=O)/C(=C\c1cccc([N+](=O)[O-])c1)C(=O)Nc1ccccc1C` [Compound 634658], the “Int.* (Ratio) (Interference)” value is recorded as 0.85 Ratio.

Regarding `O=S1(=O)OCCOS(=O)(=O)C1Cc1ccccc1` [Compound 634863], the “Int.* (Ratio) (Interference)” value is 0.99 Ratio.

On to `[O-][S+]1c2ccccc2N=C(c2cccc3ccccc23)CC1c1cccc2ccccc12` (stereo not drawn) [Compound 634926], for which the “Int.* (Ratio) (Interference)” value is given as 0.92 Ratio.

Still in this assay, the particulars now being: compounds at 20 μM, MBHA with DNA substrate; calculated from Equation 1.
Take `COC1OC(COCc2ccc(Cl)cc2)C(OCc2ccc(Cl)cc2)C1O` (stereo not drawn) [Compound 626120]: the “Inh. (%) (Inhibition)” value was 15.1%.

As to `O=Cc1cc([N+](=O)[O-])no1` [Compound 626433], the “Inh. (%) (Inhibition)” value is reported as −2.2%.

Consider `COc1ccc(C2C(C)C(=O)C(C)C(c3ccc(OC)cc3)N2N=O)cc1` (stereo not drawn) [Compound 626734], for which the “Inh. (%) (Inhibition)” value is reported as −18.3%.

For `COc1ccc2c(c1)-c1nn(CCCN(C)C)c3ccc([N+](=O)[O-])c(c13)N2` [Compound 627168], the “Inh. (%) (Inhibition)” value was 64.3%.

As to `O=[N+]([O-])c1cc(C(F)(F)F)cc2n[se]nc12` [Compound 627371], the “Inh. (%) (Inhibition)” value is listed as −10.1%.

For the compound `Cc1ccc(S(=O)(=O)c2ccccc2[N+](=O)[O-])cc1` [Compound 627708], the “Inh. (%) (Inhibition)” value is on record as −11.4%.

Consider `N#CC1(C#N)C2C=CC(c3coc4cccc2c34)C1(C#N)C#N` (stereo not drawn) [Compound 629301], for which the “Inh. (%) (Inhibition)” value is listed as 0.8%.

Take `O=C(NCCCCCCCCNC(=O)c1cccc2ccccc12)c1cccc2ccccc12` [Compound 629738]: the “Inh. (%) (Inhibition)” value is 5.9%.

As to `O=C(CCc1ccccc1)On1nnc2ccccc2c1=O` [Compound 630374], the “Inh. (%) (Inhibition)” value was 1.3%.

With `Cn1cnc([N+](=O)[O-])c1Sc1nnnn1-c1ccccc1` [Compound 631152], the “Inh. (%) (Inhibition)” value is −7.3%.

Take `N#CC1=C(N)Oc2c(ccc3cccnc23)C1c1ccccc1` (stereo not drawn) [Compound 631583]: the “Inh. (%) (Inhibition)” value is listed as 5.1%.

Regarding `COc1ccc(Cc2nc3ccccc3s2)cc1OC` [Compound 632233], the “Inh. (%) (Inhibition)” value is reported as −2.7%.

As for `CC1(C)CC(Nc2ccc(Nc3ccccc3)cc2)CC(C)(C)N1` [Compound 632536], the “Inh. (%) (Inhibition)” value is reported as 20.7%.

Take `Cc1ccc(/C=C2\CNC/C(=C\c3ccc(C)cc3)C2=O)cc1.Cl` [Compound 632839]: the “Inh. (%) (Inhibition)” value is given as 20.4%.

As to `C=CC(=O)N1C/C(=C\c2ccccc2)C(=O)/C(=C/c2ccccc2)C1` [Compound 632841], the “Inh. (%) (Inhibition)” value was 15.6%.

On to `O=[N+]([O-])c1ccccc1S(=O)(=O)c1ccccc1[N+](=O)[O-]` [Compound 633001], for which the “Inh. (%) (Inhibition)” value was 23.2%.

Take `O=C1C(c2cnc3ccccc3n2)=C(O)c2ccccc21` [Compound 634224]: the “Inh. (%) (Inhibition)” value is 2.7%.

On to `Cc1c(Cl)cccc1NC(=O)CC1Sc2ccccc2NC1=O` (stereo not drawn) [Compound 634396], for which the “Inh. (%) (Inhibition)” value is −17.6%.

With `CCOC(=O)CCn1ncc(Cl)c(Cl)c1=O` [Compound 634471], the “Inh. (%) (Inhibition)” value is on record as 2.3%.

In the case of `COC(=O)C1=CC(=O)C(C(=O)Nc2ccc(OC)cc2)C(c2ccccc2)O1` (stereo not drawn) [Compound 634473], the “Inh. (%) (Inhibition)” value is reported as 4.2%.

On to `Cn1c(=O)c2nc3sc4c(n3c2n(C)c1=O)C(=O)c1ccccc1C4=O` [Compound 634568], for which the “Inh. (%) (Inhibition)” value is −14.8%.

Turning to `CC(=O)/C(=C\c1cccc([N+](=O)[O-])c1)C(=O)Nc1ccccc1C` [Compound 634658], the “Inh. (%) (Inhibition)” value is recorded as 15.7%.

Turning to `O=S1(=O)OCCOS(=O)(=O)C1Cc1ccccc1` [Compound 634863], the “Inh. (%) (Inhibition)” value is given as −18.2%.

With `[O-][S+]1c2ccccc2N=C(c2cccc3ccccc23)CC1c1cccc2ccccc12` (stereo not drawn) [Compound 634926], the “Inh. (%) (Inhibition)” value is reported as −14.5%.
